Values quoted from earlier work as cited in patent US20030166469A1, “Crop harvesting method using a 1,2,4-triazol-1-ylpropanoic acid and derivatives” (priority 2001, published 2003).

Test system: cotton
Settings: tested alone, no adjuvant; data of U.S. Pat. No. 6,444,613

## CCOC(=O)C(Cl)Cc1cc(-n2nc(C)n(C(F)F)c2=O)c(F)cc1Cl (stereo not drawn) [Compound Ic, ethyl α,2-dichloro-5-[4-(difluoromethyl)-4,5-dihydro-3-methyl-5-oxo-1H-1,2,4-triazol-1-yl]-4-fluoropropanoate]
  defoliation of cotton: ≤ 29%
